From patent publication US20250270202A1, “SUBSTITUTED 4-AMINOISOINDOLINE COMPOUND, PREPARATION METHOD THEREFOR, PHARMACEUTICAL COMPOSITION THEREOF, AND USE THEREOF” (SHANGHAI INSTITUTE OF MATERIA MEDICA, CHINESE ACADEMY OF …, priority 2022, published 2025)
Read-outs that look alike come from different tables or passages of the source.

What was measured:
Assay type in all cases: cell-based
MV-4-11 cells = assay: Inhibition of MV-4-11 cell proliferation (MTS, 7 days); details: Homo sapiens
Protocol: MV-4-11 cells were cultured in IMDM with 10% fetal bovine serum, collected, and diluted to the appropriate cell concentration for a 7-day treatment period. A 96-well plate was used, and 180 μL of cell suspension was added to each well, resulting in a cell count of 2,000 per well. For the control wells, 20 μL of DMSO at a final concentration of 0.2% was added. The compounds were diluted from a 10 mM stock solution in a five-fold gradient, and 20 μL was added to the compound wells (with a final DMSO concentration of 0.2%). The cells were incubated in a 37° C., 5% CO2 incubator for 7 days. After preparing the reaction solution using the MTS reagent kit (Promega, G5430), 20 μL was added to each well, and the cells were incubated in the incubator for 3-4 hours. The absorbance at 490 nm was measured using a microplate reader, with the absorbance at 690 nm as the background value. The final data was calculated as OD490-OD690. The inhibition rate of the compounds was calculated using the formula: […]
The IC50 values for proliferation inhibition were calculated using GraphPad Prism 5.0. The experiments were repeated three times, with three parallel experiments for each, and the mean and standard deviation were calculated.
The cell activity test results are shown in Table 3: A indicates IC50<1 μM, B indicates 1 µM≤IC50≤20 μM, and C indicates IC50>20 μM.

MM.1S cells = assay: Effect of the compound on MM.1S cell proliferation (MTS, 7 days); details: Homo sapiens, MM1.S, 168 h, 7 days, MTS, Table 1, read-out: MM.1S Cells Inhibition Activity IC50
Protocol: MM.1S cells were cultured in 1640 medium supplemented with 10% fetal bovine serum, then collected and diluted to the desired cell concentration after 7 days of treatment. A total of 180 μL of cell suspension was added to each well in a 96-well cell plate, ensuring 20,000 cells per well. For the control group, 20 μL of 0.2% DMSO was added to each well. Compounds were diluted in a 5-step gradient from a 10 mM stock solution, and 20 μL of each dilution was added to the compound-containing wells (with a final DMSO concentration of 0.2%). The cells were incubated in a 37° C., 5% CO2 incubator for 7 days. Afterward, 20 μL of the MTS reagent (Promega, G5430) was added to each well, followed by incubation for 3-4 hours in a 37° C., 5% CO2 incubator. Absorbance at 490 nm was measured using a microplate reader, with 690 nm absorbance as the background. The final raw data was calculated as OD490-OD690. The compound inhibition rate was calculated using the formula: […]
The IC50 for the compound's proliferative inhibition was fitted using GraphPad Prism 5.0. The experiment was repeated three times, and the average and standard deviation were calculated using three parallel experiments per trial.

Mino cells = assay: Inhibition of cell proliferation of Mino cells (MTS, 3 days); details: Homo sapiens, MINO, 72 h, 3 days, MTS, Table 2, read-out: Mino Cells Inhibition Activity IC50
Protocol: Mino cells were cultured with RPMI-1640 medium supplemented with 15% fetal bovine serum, and collected. The cell concentration was diluted according to a 3-day treatment period, and 90 μL of the cell suspension was added to each well of a 96-well plate, resulting in 8000 cells per well. For control wells, 10 μL of DMSO at a final concentration of 0.2% was added. The compounds were diluted in a 5-fold gradient from a 10 mM stock solution, and 10 μL of each compound solution was added to the experimental wells (with a final DMSO concentration of 0.2%). The cells were incubated in a 37° C., 5% CO2 incubator for 3 days. After preparing the reaction mixture using the MTS reagent kit (Promega, G5430), 20 μL was added to each well, and the cells were incubated for 3-4 hours at 37° C., 5% CO2.
The absorbance at 490 nm was read using a microplate reader, with the absorbance at 690 nm used as the background. The final raw data was calculated as OD490-OD690. The inhibition rate of the compounds was calculated using the formula: Inhibition rate=(OD DMSO−OD compound)/(OD DMSO−OD blank)×100%. The IC50 values for cell proliferation inhibition of the compounds were fitted using GraphPad Prism 5.0. The experiment was repeated three times, with the average and standard deviation calculated from three parallel experiments each time.

[1] = MV4-11, positive compounds, read-out: IC50 in MV-4-11 acute leukemia cells
[2] = MV4-11, 168 h, 7 days, MTS, Table 3, read-out: MV-4-11 Cells Inhibition Activity IC50

IC50 (MV-4-11 cells; [1])	IC50 (MM.1S cells)	IC50 (MV-4-11 cells; [2])	SMILES	IC50 (Mino cells)
> 20000 nM			Cc1nc2cccc(N)c2c(=O)n1C1CCC(=O)NC1=O (stereo not drawn) [CC-122, reference compound]	
> 20000 nM	< 15 nM	> 20000 nM	O=C1CCC(N2Cc3c(OCc4ccc(CN5CCOCC5)cc4)cccc3C2=O)C(=O)N1 (stereo not drawn) [CC-220, reference compound]	60 to 120 nM
	< 15 nM	1000 to 20000 nM	CC1(C(=O)N2CCC(c3ncc(CNc4cccc5c4C(=O)N(C4CCC(=O)NC4=O)C5=O)o3)CC2)CCC1 (stereo not drawn) [Example 1]	< 60 nM
	< 15 nM	< 1000 nM	O=C1CCC(N2C(=O)c3cccc(NCc4cnc(C5CCN(C(=O)C6(c7ccc(F)cc7)CCC6)CC5)o4)c3C2=O)C(=O)N1 (stereo not drawn) [Example 2]	< 60 nM
	< 15 nM	1000 to 20000 nM	O=C1CCC(N2C(=O)c3cccc(NCc4cnc(C5CCN(C(=O)C67CC8CC(CC(C8)C6)C7)CC5)o4)c3C2=O)C(=O)N1 (stereo not drawn) [Example 3, 4-((2-(1-((3r,5r,7r)-adamantane-1-carbonyl)piperidin-4-yl)oxazol-5-yl)methyl)amino)-2-(2,6-dioxopiperidin-3-yl)isoindoline-1,3-dione]	< 60 nM
	< 15 nM	< 1000 nM	O=C1CCC(N2C(=O)c3cccc(NCc4cnc(C5CCN(C(=O)C6(C(F)(F)F)CCC6)CC5)o4)c3C2=O)C(=O)N1 (stereo not drawn) [Example 4]	< 60 nM
	15 to 30 nM	1000 to 20000 nM	O=C1CCC(N2C(=O)c3cccc(NCc4cnc(C5CCN(C(=O)c6ccc(F)cc6)CC5)o4)c3C2=O)C(=O)N1 (stereo not drawn) [Example 5]	> 120 nM
	30 to 150 nM	1000 to 20000 nM	N#Cc1ccc(C(=O)N2CCC(c3ncc(CNc4cccc5c4C(=O)N(C4CCC(=O)NC4=O)C5=O)o3)CC2)c(F)c1 (stereo not drawn) [Example 6, 4-(4-(5-(((2-(2,6-dioxopiperidin-3-yl)-1,3-dioxoisindole-4-yl)amino)methyl)oxazol-2-yl)piperidine-1-carbonyl)-3-fluorobenzonitrile]	60 to 120 nM
	15 to 30 nM	1000 to 20000 nM	O=C1CCC(N2C(=O)c3cccc(NCc4cnc(C5CCN(C(=O)c6ccc(OC(F)(F)F)cc6)CC5)o4)c3C2=O)C(=O)N1 (stereo not drawn) [Example 7]	> 120 nM
	15 to 30 nM	< 1000 nM	O=C1CCC(N2C(=O)c3cccc(NCc4cnc(C5CCN(C(=O)c6ccc(Cl)cc6Cl)CC5)o4)c3C2=O)C(=O)N1 (stereo not drawn) [Example 8]	60 to 120 nM
	15 to 30 nM	< 1000 nM	O=C1CCC(N2C(=O)c3cccc(NCc4cnc(-c5cccc(OC(F)(F)F)c5)o4)c3C2=O)C(=O)N1 (stereo not drawn) [Example 55]	
	30 to 150 nM	1000 to 20000 nM	O=C1CCC(N2C(=O)c3cccc(NCc4cnc(-c5ccccc5OC(F)(F)F)o4)c3C2=O)C(=O)N1 (stereo not drawn) [Example 56]	
		< 1000 nM	O=C1CCC(N2C(=O)c3cccc(NCc4cnc(-c5cccc(Cl)c5)s4)c3C2=O)C(=O)N1 (stereo not drawn) [Example 68, 4-(((2-(3-Chlorophenyl)thiazol-5-yl)methyl)amino)-2-(2,6-Dioxopiperidin-3-yl)isoindolin-1,3-dione]	> 120 nM
	15 to 30 nM	1000 to 20000 nM	O=C1CCC(N2C(=O)c3cccc(NCc4cnc(-c5cccc(F)c5)o4)c3C2=O)C(=O)N1 (stereo not drawn) [Example 70, 2-(2,6-Dioxopiperidin-3-yl)-4-(((2-(3-Fluorophenyl)oxazol-5-yl)methyl)amino)isoindolin-1,3-dione]	
		< 1000 nM	O=C1CCC(N2C(=O)c3cccc(NCc4cnc(-c5cc(Cl)cc(Cl)c5)o4)c3C2=O)C(=O)N1 (stereo not drawn) [Example 75, 4-(((2-(3,5-Dichlorophenyl)oxazol-5-yl)methyl)amino)-2-(2,6-Dioxopiperidin-3-yl)isoindolin-1,3-dione]	> 120 nM
		1000 to 20000 nM	O=C1CCC(N2C(=O)c3cccc(NCc4cnc(-c5ccccc5OC5COC5)o4)c3C2=O)C(=O)N1 (stereo not drawn) [Example 101]	
	30 to 150 nM	1000 to 20000 nM	O=C1CCC(N2C(=O)c3cccc(NCc4cnc(-c5ccc(OC6COC6)cc5)s4)c3C2=O)C(=O)N1 (stereo not drawn) [Example 102]	
